Data: patent publication US20240285670A1, “THERAPEUTIC TREATMENT OF TUMORS BY BLOCKING THE HEME SYNTHESIS-EXPORT AXIS” (Università degli Studi di Torino, priority 2021, published 2024)

Assays:
[1] = test system: BTECs; assay: Wound healing assay (BTECs migration); format: cell-based, human; conditions: FLVCR1a-silenced vs scramble shRNA BTECs
Excerpt: (A) BTECs counting, as a readout of cell proliferation, at the indicated time points. […] Data represent mean±SEM, n=4. For statistical analyses, a two-way analysis of variance was used, followed by the Bonferroni correction for multiple group comparisons; ***p<0.001. (B) Quantification of BTECs migration rate in wound-healing assay. […] Data represent mean±SEM, n=32. For statistical analyses, a nonparametric unpaired Mann-Whitney test was used; ***p<0.001. (C) In vitro tubulogenesis assay on matrigel. […] The number of nodes counted within the neo-formed vascular networks is shown. Data represent mean±SEM; n=10. For statistical analyses, a nonparametric unpaired Mann-Whitney test was used; **p<0.01.
To evaluate cell motility, BTECs were grown to confluence in 24-well plates coated with 1% Gelatin from bovine skin (Sigma-Aldrich, St. Louis, MO USA, catalog n° G9391). […] Cell migration into the wound was monitored using a Nikon Eclipse T-E microscope with a 4× objective. […] Three separate wells were used for each condition and, in each well, at least six fields were analysed for each condition. Cell migration into the wound was assessed using Fiji open source software (Schindelin et al., 2012) (http://fiji.sc/ RRID:SCR_002285), by measuring the distance between the two sides of the wound at each time point. Data were expressed as percentage of cell migration. […]

[2] = test system: Caco2 cells; assay: Flow cytometric analysis of apoptosis in Caco2 cells; format: cell-based, human; conditions: FLVCR1a-silenced vs scramble shRNA, synchronized Caco2 cells
Excerpt: (A) Proliferation of Caco2 cells assessed by crystal violet staining at the indicated days; bar=1000 μm. […] Staining quantification is reported in the bar graph as percentage of crystal violet stained area. Data represent mean±SEM, n=4. For statistical analyses, a two-way analysis of variance was used, followed by the Bonferroni correction for multiple group comparisons; *=p<0.05, ***=p<0.001. (B) Caco2 cells viability the day of plating (day 0) and three days after plaiting (day 3). The measure is considered a readout of cell proliferation. […] Data represent mean±SEM, n=3 wells. For statistical analyses, a two-way analysis of variance was used, followed by the Bonferroni correction for multiple group comparisons; *=p<0.05, **=p<0.01. (C, D, E) Representative flow cytometric analyses of apoptosis in synchronized Caco2 (C), SKCO1 (D) and C80 (E) cells. […] Data represent mean±SEM, n=4 wells pooled from two independent experiments. For statistical analyses, an unpaired Student's t-test was used; *=p<0.05, **=p<0.01. […]
Stained cells were analyzed using a FACSCanto II cytofluorimeter and processed with BD FACSDIVA Software v8.1 (BD Biosciences, Milan, IT; http://www.bdbiosciences.com/instruments/software/facsdiva/index.jsp/ RRID:SCR_001456), acquiring at least 10,000 events per sample or 25,000 cells per sample for cell cycle experiments.

For “FLVCR1a shRNA: shRNA specifically down-regulating FLVCR1a without targeting FLVCR1b; pLKO.1 lentiviral clone TRCN0000059599, antisense SEQ ID No.: 2 (antisense TTGCTAATGATGCTGTACTGG; sense CCAGTACAGCATCATTAGCAA)”, which migratory rate [1] is on record?
Its migratory rate is “reduction of the migratory rate”.

What about the basal apoptosis [2] of the same substance?
The basal apoptosis was “higher extent of basal apoptosis”.
